Test results from ChEMBL document CHEMBL4610019, “Novel hybrid molecules of 3,5-bis(benzylidene)-4-piperidones and dichloroacetic acid which demonstrate potent tumour-selective cytotoxicity” (Bioorg Med Chem Lett, 2020).
Active and inactive are the calls of the source. No cut-off for these calls is given here.

Tests used:
HCT-116 [1] = assay: Potency index, ratio of 5-fluorouracil IC50 to test compound IC50 for human HCT116 cells assessed as inhibition of cell growth; format: functional
[2] = Selectivity index, ratio of IC50 for human CRL1790 cells assessed as inhibition of cell growth to IC50 for human HCT116 cells assessed as inhibition of cell growth; format: toxicity; details: CRL1790 cells versus HCT116 cells, read-out: Ratio IC50
CCD-841CoN = assay: Cytotoxicity against human CRL1790 cells assessed as inhibition of cell growth; format: cell-based
HCT-116 [3] = assay: Cytotoxicity against human HCT116 cells assessed as inhibition of cell growth; format: functional, cell-based
HCT-116 [4] = assay: Cell cycle arrest in human HCT116 cells assessed as accumulation at G2/M phase at 0.23 uM (reference value: 29.4 %); format: functional
HCT-116 [5] = assay: Induction of mitochondrial membrane potential loss in human HCT116 cells at 2 times IC50; format: functional, cell-based
HCT-116 [6] = assay: Induction of ROS generation in human HCT116 cells assessed as increase in ROS level at 2 times IC50; format: functional, cell-based
[7] = Stability of compound in mixture of DMSO and phosphate buffer at 37 degree C incubated for 48 hrs by H-NMR spectroscopy; format: physicochemical
HCT-116 [8] = assay: Cell cycle arrest in human HCT116 cells assessed as accumulation at S phase at 0.23 uM (reference value: 18.4 %); format: functional
HCT-116 [9] = assay: Cell cycle arrest in human HCT116 cells assessed as accumulation of diploid cells at 0.23 uM (reference value: 2.5 %); format: functional
HCT-116 [10] = assay: Induction of mitochondrial membrane potential loss in human HCT116 cells at IC50; format: functional, cell-based
HCT-116 [11] = assay: Induction of ROS generation in human HCT116 cells assessed as increase in ROS level at IC50; format: functional, cell-based
HCT-116 [12] = assay: Cell cycle arrest in human HCT116 cells assessed as accumulation at G0/G1 phase at 0.23 uM (reference value: 46.8 %); format: functional
HCT-116 [13] = assay: Induction of apoptosis in human HCT116 cells assessed as apoptotic cells at 0.23 uM (reference value: 2.4 %); format: functional
HCT-116 [14] = assay: Cell cycle arrest in human HCT116 cells assessed as accumulation at S phase at 0.28 uM (reference value: 18.4 %); format: functional
HCT-116 [15] = assay: Cell cycle arrest in human HCT116 cells assessed as accumulation at G0/G1 phase at 10.96 uM (reference value: 0.28 %); format: functional
HCT-116 [16] = assay: Cell cycle arrest in human HCT116 cells assessed as accumulation of diploid cells at 0.28 uM (reference value: 2.5 %); format: functional
HCT-116 [17] = assay: Induction of apoptosis in human HCT116 cells assessed as apoptotic cells at 0.28 uM (reference value: 2.4 %); format: functional
HCT-116 [18] = assay: Cell cycle arrest in human HCT116 cells assessed as accumulation at G2/M phase at 0.28 uM (reference value: 29.4 %); format: functional
HCT-116 [19] = assay: Cell cycle arrest in human HCT116 cells assessed as accumulation at S phase at 0.03 uM (reference value: 18.4 %); format: functional
HCT-116 [20] = assay: Cell cycle arrest in human HCT116 cells assessed as accumulation at G2/M phase at 0.03 uM (reference value: 29.4 %); format: functional
HCT-116 [21] = assay: Cell cycle arrest in human HCT116 cells assessed as accumulation at G0/G1 phase at 0.03 uM (reference value: 46.8 %); format: functional
HCT-116 [22] = assay: Induction of apoptosis in human HCT116 cells assessed as apoptotic cells at 0.03 uM (reference value: 2.4 %); format: functional
HCT-116 [23] = assay: Cell cycle arrest in human HCT116 cells assessed as accumulation of diploid cells at 0.03 uM (reference value: 2.5 %); format: functional
HCT-116 [24] = assay: Cell cycle arrest in human HCT116 cells assessed as accumulation at G2/M phase at 10.96 uM (reference value: 29.4 %); format: functional
HCT-116 [25] = assay: Induction of apoptosis in human HCT116 cells assessed as apoptotic cells at 10.96 uM (reference value: 2.4 %); format: functional
HCT-116 [26] = assay: Cell cycle arrest in human HCT116 cells assessed as accumulation of diploid cells at 10.96 uM (reference value: 2.5 %); format: functional
HCT-116 [27] = assay: Cell cycle arrest in human HCT116 cells assessed as accumulation at S phase at 10.96 uM (reference value: 18.4 %); format: functional
HCT-116 [28] = assay: Cell cycle arrest in human HCT116 cells assessed as accumulation at G0/G1 phase at 10.96 uM (reference value: 46.8 %); format: functional

SMILES | selectivity ratio [2] | IC50 (CCD-841CoN) [µM] | IC50 (HCT-116 [3]) [µM] | other results
Cc1ccc(/C=C2\CN(C(=O)C(Cl)Cl)C/C(=C\c3ccc(C)cc3)C2=O)cc1 | 540 | 16.2 | 0.03 | Ratio IC50 (HCT-116 [1]): >100
COc1ccc(/C=C2\CN(C(=O)C(Cl)Cl)C/C(=C\c3ccc(OC)c(OC)c3)C2=O)cc1OC | 96.4 | 10.6 | 0.11 | 
COc1cc(/C=C2\CN(C(=O)C(Cl)Cl)C/C(=C\c3cc(OC)c(OC)c(OC)c3)C2=O)cc(OC)c1OC | 378 | 15.1 | 0.04 | Ratio IC50 (HCT-116 [1]): >100
O=C1/C(=C/c2ccccc2)CN(C(=O)C(Cl)Cl)C/C1=C\c1ccccc1 | 54.4 | 12.5 | 0.23 | Activity (HCT-116 [4]): 29.6%; Activity (HCT-116 [5]): Active; Activity (HCT-116 [6]): Active; Stability [7]: Stable; Activity (HCT-116 [8]): 19.9%; Activity (HCT-116 [9]): 1.8%; Activity (HCT-116 [10]): Active; Activity (HCT-116 [11]): Active; Activity (HCT-116 [12]): 44.7%; Activity (HCT-116 [13]): 3.6%
COc1ccc(/C=C2\CN(C(=O)C(Cl)Cl)C/C(=C\c3ccc(OC)cc3)C2=O)cc1 | 48.9 | 13.2 | 0.27 | 
O=c1[nH]cc(F)c(=O)[nH]1 [FLUOROURACIL] | 4.65 | 18.7 | 4.02 | Activity (HCT-116 [5]): Active; Activity (HCT-116 [6]): Active; Activity (HCT-116 [10]): Active; Activity (HCT-116 [11]): Active
CC(=O)N1C/C(=C\c2ccccc2)C(=O)/C(=C/c2ccccc2)C1 | 74.3 | 20.8 | 0.28 | Activity (HCT-116 [14]): 18.3%; Activity (HCT-116 [5]): Active; Activity (HCT-116 [6]): Active; Activity (HCT-116 [15]): 45.5%; Activity (HCT-116 [16]): 2.4%; Activity (HCT-116 [17]): 3.5%; Activity (HCT-116 [10]): Active; Activity (HCT-116 [11]): Active; Activity (HCT-116 [18]): 30%
O=C1/C(=C/c2ccc([N+](=O)[O-])cc2)CN(C(=O)C(Cl)Cl)C/C1=C\c1ccc([N+](=O)[O-])cc1 | 370 | 11.1 | 0.03 | Activity (HCT-116 [19]): 21.4%; Ratio IC50 (HCT-116 [1]): >100; Activity (HCT-116 [20]): 27.8%; Activity (HCT-116 [5]): Active; Activity (HCT-116 [6]): Active; Activity (HCT-116 [21]): 44.4%; Activity (HCT-116 [22]): 3.6%; Activity (HCT-116 [10]): Active; Activity (HCT-116 [11]): Active; Activity (HCT-116 [23]): 2.2%
O=C1/C(=C/c2ccccc2F)CN(C(=O)C(Cl)Cl)C/C1=C\c1ccccc1F | 52.4 | 11 | 0.21 | 
O=C1/C(=C/c2ccc(F)cc2)CN(C(=O)C(Cl)Cl)C/C1=C\c1ccc(F)cc1 | 292 | 14.6 | 0.05 | 
O=C1/C(=C/c2ccc(Cl)c(Cl)c2)CN(C(=O)C(Cl)Cl)C/C1=C\c1ccc(Cl)c(Cl)c1 | 305 | 12.2 | 0.04 | Ratio IC50 (HCT-116 [1]): >100
CN(C)c1ccc(/C=C2\CN(C(=O)C(Cl)Cl)C/C(=C\c3ccc(N(C)C)cc3)C2=O)cc1 | 0.69 | 9.12 | 13.3 | Activity (HCT-116 [5]): inactive; Activity (HCT-116 [24]): 29.9%; Activity (HCT-116 [25]): 4.6%; Activity (HCT-116 [6]): Active; Activity (HCT-116 [26]): 1.4%; Activity (HCT-116 [27]): 20.8%; Activity (HCT-116 [28]): 42.9%; Activity (HCT-116 [10]): inactive; Activity (HCT-116 [11]): Active
O=C1/C(=C/c2ccc3c(c2)OCO3)CN(C(=O)C(Cl)Cl)C/C1=C\c1ccc2c(c1)OCO2 | 65.9 | 21.1 | 0.32 | 
O=C([O-])C(Cl)Cl.[Na+] [SODIUM DICHLOROACETATE] | 0.85 | 12.5 | 14.8 | 
O=C1/C(=C/c2cccc(F)c2)CN(C(=O)C(Cl)Cl)C/C1=C\c1cccc(F)c1 | 135 | 14.8 | 0.11 | 
O=C1/C(=C/c2ccc(Cl)cc2)CN(C(=O)C(Cl)Cl)C/C1=C\c1ccc(Cl)cc1 | 115 | 14.9 | 0.13 | 
O=C1/C(=C/c2ccc(F)c(F)c2)CN(C(=O)C(Cl)Cl)C/C1=C\c1ccc(F)c(F)c1 | 185 | 11.1 | 0.06 | 
CC(C)(C)C(=O)N1C/C(=C\c2ccc(OC(=O)C(Cl)Cl)cc2)C(=O)/C(=C/c2ccc(OC(=O)C(Cl)Cl)cc2)C1 | 71.3 | 16.4 | 0.23 | 
O=C1/C(=C/c2ccccc2)CNC/C1=C\c1ccccc1 | 2.7 | 9.45 | 3.5 | 
O=C1/C(=C/c2ccc(O)cc2)CN(C(=O)C(Cl)Cl)C/C1=C\c1ccc(O)cc1 | 3.58 | 13.8 | 3.85 | 
